Measurements taken from patent US10287252B2, “Inhibitors of tryptophan-2,3-dioxygenase or indoleamine-2,3-dioxygenase” (IOmet Pharma Ltd., priority 2014, dated 2019).

How the values were obtained:
IDO [1] = target: T1, IDO (Homo sapiens, UniProt P14902); test: hIDO biochemical coupled assay; settings: 45 μM L-tryptophan, coupled with kynurenine formamidase
Procedure: (§1) Exemplary compounds of the invention were prepared, and tested to determine their effect as TDO and/or IDO inhibitors. Two different assays were employed: 1. a cell-based assay for detecting the effect of test compounds on kynurenine production in two different cancer cell types. This assay utilised cancer cells which expressed either TDO or IDO and as such was used as a means of testing compound activity at these two enzymes in a cell-based context. 2. a TDO and IDO biochemical coupled assay which utilised recombinantly produced and purified TDO and IDO enzymes in combination with the enzyme formamidase. This coupled enzyme system allowed conversion of N-formylkynurenine produced by TDO or IDO activity to kynurenine which was then quantified by fluorescence following addition of Erhlich's Reagent The protocols for these are set out below.
(§2) TDO and IDO Biochemical Coupled Assay
(§3) Recombinant human IDO or TDO was incubated in 50 mM KPO4 (pH 7.0), 0.5 mM EGTA, 0.5 mM EDTA, 0.05% Triton™ X100, 20 mM ascorbate, 10 μM methylene blue, 500 U/ml catalase, 50 μg/ml KynB (kynurenine formamidase). TDO assays were carried out in the presence of 330 μM L-tryptophan, while IDO assays had the addition of 45 μM L-tryptophan. After incubation for 17 minutes at room temperature the reactions were stopped by the addition of Erhlich's reagent and incubated at room temperature for 5 minutes before the fluorescence was read (Ex475, Em530).

TDO [2] = target: T2, TDO (Homo sapiens, UniProt P48775); test: hTDO biochemical coupled assay; settings: 330 μM L-tryptophan, coupled with kynurenine formamidase
Procedure: as §1, §2, §3

TDO [3] = target: T2, TDO; test: A172 Kynurenine cell based assay; parameters: This assay utilised cancer cells which expressed either TDO or IDO; endogenous in cells; host or cells: A172 (human glioblastoma); settings: A172 (human glioblastoma) cells, 500 μM L-tryptophan, 48 hours, kynurenine by Erhlich's reagent
Procedure: as §1
(§4) Cell Based Assay for Detection of Kynurenine Produced by TDO and/or IDO
(§5) A172 (human glioblastoma) and SKOV3 (human ovarian adenocarcinoma) cells were seeded in a 96 well plate at 30,000 or 40,000 cells per well respectively in phenol red-free RPMI supplemented with 10% FCS, 2 mM L-glutamine and 500 μM L-tryptophan. IDO expression was induced in the SKOV3 cells by the addition of 500 ng/ml IFN-γ. Cells were incubated at 37° C. with or without the addition of test compound. After 48 hours, the cells were removed by centrifugation and Erhlich's reagent was added to the supernatant. The Erhlich's reagent was incubated for 5 minutes before the absorbance was read at 490 nm.

IDO [4] = target: T1, IDO; test: SKOV3 Kynurenine cell based assay; parameters: IDO expression was induced in the SKOV3 cells by the addition of 500 ng/ml IFN-γ; endogenous in cells; host or cells: SKOV3 (human ovarian adenocarcinoma), induced with IFN-γ; settings: SKOV3 (human ovarian adenocarcinoma) cells, IDO induced by 500 ng/ml IFN-γ, 500 μM L-tryptophan, 48 hours
Procedure: as §1, §4, §5

T2 sequence (P48775 whole entry): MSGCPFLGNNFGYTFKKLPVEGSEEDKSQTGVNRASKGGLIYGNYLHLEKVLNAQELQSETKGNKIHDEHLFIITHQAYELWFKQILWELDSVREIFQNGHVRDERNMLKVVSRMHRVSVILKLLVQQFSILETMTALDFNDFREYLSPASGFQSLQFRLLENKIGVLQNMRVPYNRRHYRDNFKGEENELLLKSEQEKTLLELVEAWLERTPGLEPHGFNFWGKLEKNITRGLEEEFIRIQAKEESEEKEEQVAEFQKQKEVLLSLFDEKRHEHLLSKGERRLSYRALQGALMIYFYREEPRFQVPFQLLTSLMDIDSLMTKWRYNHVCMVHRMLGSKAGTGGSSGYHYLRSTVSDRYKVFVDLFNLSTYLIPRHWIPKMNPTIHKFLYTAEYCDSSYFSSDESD
T1 sequence (P14902 whole entry): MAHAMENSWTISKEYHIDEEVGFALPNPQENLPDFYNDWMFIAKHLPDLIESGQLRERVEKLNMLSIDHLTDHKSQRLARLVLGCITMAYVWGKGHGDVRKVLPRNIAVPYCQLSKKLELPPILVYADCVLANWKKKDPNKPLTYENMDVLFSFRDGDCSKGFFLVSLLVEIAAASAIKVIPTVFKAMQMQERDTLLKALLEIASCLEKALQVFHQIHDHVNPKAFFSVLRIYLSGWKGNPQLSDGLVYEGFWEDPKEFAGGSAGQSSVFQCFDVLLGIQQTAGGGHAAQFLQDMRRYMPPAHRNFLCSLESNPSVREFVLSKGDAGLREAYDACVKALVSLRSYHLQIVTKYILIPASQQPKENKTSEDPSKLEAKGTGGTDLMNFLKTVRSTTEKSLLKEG

Structure (SMILES) | hIDO biochemical assay pIC50 (IDO [1]) | hTDO biochemical assay pIC50 (TDO [2]) | A172 Kynurenine cell based assay pIC50 (TDO [3]) | SKOV3 Kynurenine cell based assay pIC50 (IDO [4])
O=S(=O)(Nc1cccc2cnccc12)c1cccc2ccccc12 [Compound 16] | ++ (++ = pIC50 4.50-5.49) | + (+ = pIC50 4.00-4.49) | ++ (++ = pIC50 4.50-5.49) | ++ (++ = pIC50 4.50-5.49)
O=S(=O)(Nc1cccc2ccncc12)c1ccccc1 [Compound 56] | + (+ = pIC50 4.00-4.49) | +/− (+/− = pIC50 <4.00) | +/− (+/− = pIC50 <4.00) | + (+ = pIC50 4.00-4.49)
O=S(=O)(Nc1cc(Cl)cc2cnccc12)c1ccc(Cl)cc1 [Compound 57] | + (+ = pIC50 4.00-4.49) | +/− (+/− = pIC50 <4.00) | +/− (+/− = pIC50 <4.00) | ++ (++ = pIC50 4.50-5.49)
CC(C)Oc1ccc(S(=O)(=O)Nc2cc(Cl)cc3cnccc23)cc1 [Compound 58] | + (+ = pIC50 4.00-4.49) | +/− (+/− = pIC50 <4.00) | +/− (+/− = pIC50 <4.00) | ++ (++ = pIC50 4.50-5.49)
